Earlier results as cited in US20190030061A1, “COBALAMIN COMPOSITIONS AND USE THEREOF FOR IMPROVING COGNITIVE FUNCTION” (NOVA SOUTHEASTERN UNIVERSITY, priority 2016, published 2019).

Tested on: neuronal cells

| Substance | GSH levels | cysteine uptake |
| --- | --- | --- |
| IGF1: insulin-like growth factor 1 | increased | stimulates |
| Amyloid Beta | decrease | decrease |
